{"source": "patent US12371454B2", "about": "“Cyclic peptide compound having Kras inhibitory action” (priority 2019, dated 2025)", "note": "Starred links: 1 amine or outer side, 2 acyl side, 3 side chain; linkers in the order of their positions; H or OH if unused. Positions of bridges follow the written chain, without caps; N, C: chain ends. Non-standard residues stand in square brackets, D forms with d. Residues, ends and D or L forms follow the SMILES beside them. *: point of attachment. NMeAbu(3,3-F2-piperidino) = CN[C@@H](CCN1CCCC(F)(F)C1)C(=O)O; hPhe(3-Cl-4-CF3) = N[C@@H](CCc1ccc(C(F)(F)F)c(Cl)c1)C(=O)O; NMeDab(N,N-(CH2CF2CH2)) = CN[C@@H](CCN1CC(F)(F)C1)C(=O)O; NMePhe(4-Cl) = CN[C@@H](Cc1ccc(Cl)cc1)C(=O)O; NMePhe(4-Me) = CN[C@@H](Cc1ccc(C)cc1)C(=O)O; NMedβ3hAla = C[C@H](CC(=O)[*:2])N(C)[*:1]; Abu(4,4,4-F3) = N[C@@H](CC(F)(F)F)C(=O)O; Phe(3-Cl) = N[C@@H](Cc1cccc(Cl)c1)C(=O)O; NMeGly(cPent) = CN[C@H](C(=O)O)C1CCCC1; NMeAla(cPr) = CN[C@@H](CC1CC1)C(=O)O; NMe3Pal = CN[C@@H](Cc1cccnc1)C(=O)O; NMeCha = CN[C@@H](CC1CCCCC1)C(=O)O; NMeChg = CN[C@H](C(=O)O)C1CCCCC1; NMeF = CN[C@@H](Cc1ccccc1)C(=O)O; NMeI = CC[C@H](C)[C@H](NC)C(=O)O; NMeD = CN[C@@H](CC(=O)O)C(=O)O; Benzyl(4-Cl) = Clc1ccc(C*)cc1; NMeL = CN[C@@H](CC(C)C)C(=O)O; NMeV = CN[C@H](C(=O)O)C(C)C; d(β3hA) = C[C@@H](N)CC(=O)O; NMeA = CN[C@@H](C)C(=O)O; NMeAib = CNC(C)(C)C(=O)O; Piperidide = C1CCN(*)CC1; Pyrrolidide = C1CCN(*)C1; dNMeA = CN[C@H](C)C(=O)O; Ac5c = NC1(C(=O)O)CCCC1; Aze = O=C(O)[C@@H]1CCN1; NEtG = CCNCC(=O)O; Sar = CNCC(=O)O"}
{"molecular_target": "T1, Kras and SOS1 (biotin-tagged human Kras loaded with GDP, His-tagged human SOS1) (Homo sapiens, UniProt P01116, G12D)", "T1 construct": "made in house; host or cells: E. coli (stated for Kras only)", "T1 sequence (P01116 1-188 isoform P01116-2 G12D)": "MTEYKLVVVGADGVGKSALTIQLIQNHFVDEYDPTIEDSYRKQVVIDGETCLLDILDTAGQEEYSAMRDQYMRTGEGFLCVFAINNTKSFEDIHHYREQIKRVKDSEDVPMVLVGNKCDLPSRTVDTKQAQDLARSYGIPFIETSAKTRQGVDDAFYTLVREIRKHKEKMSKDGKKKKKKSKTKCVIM", "test": "Protein-protein interaction inhibition between Kras and SOS1 (KrasGl2D-SOS PPI) using AlphaScreen", "type": "binding", "settings": "AlphaScreen; biotin-tagged human Kras loaded with GDP, His-tagged human SOS1; read-out: KRAS G12D-SOS PPI IC50", "procedure": "Protein-Protein Interaction Inhibition Between Kras and SOS1 (KrasGl2D-SOS PPI) Using AlphaScreen\nProtein-protein interaction inhibition (PPI) between Kras and SOS1 was measured by energy transfer from nickel-conjugated donor beads to streptavidin-conjugated acceptor beads using biotin-tagged human Kras expressed in E. coli and loaded with GDP after purification and His-tagged human SOS1 enzyme. This measurement utilizes the phenomenon in which donor beads are irradiated with light at 680 nm, such that energy is transferred to acceptor beads through singlet oxygen and light at 520-620 nm is detected from the acceptor beads.\nInhibition of binding between K-ras and SOS1 is known to inhibit signaling downstream of Kras.", "units": {"IC50": "nM"}}
{"smiles": "CC[C@H](C)[C@@H]1NC(=O)[C@H](C)N(C)C(=O)C[C@@H](C(=O)N2CCCC2)N(C)C(=O)[C@H](C2CCCCC2)N(C)C(=O)C2(CCCC2)NC(=O)[C@H](Cc2cccnc2)N(C)C(=O)[C@H](CCc2ccc(C(F)(F)F)c(Cl)c2)NC(=O)CN(C)C(=O)[C@H](CC2CCCCC2)N(C)C(=O)CN(C)C(=O)CN(C)C1=O", "note": "[Compound 1834] ([NMeA]I[Sar][Sar][NMeCha][Sar][hPhe(3-Cl-4-CF3)][NMe3Pal][Ac5c][NMeChg][NMeD]-Pyrrolidide; lactam N-11)", "IC50": 0.81}
{"smiles": "CC[C@H](C)[C@@H]1NC(=O)[C@H](CC(C)C)N(C)C(=O)C[C@@H](C)NC(=O)[C@H](CC2CC2)N(C)C(=O)C2(CCCC2)NC(=O)[C@@H]2CCCN2C(=O)[C@H](CCc2ccc(C(F)(F)F)c(Cl)c2)NC(=O)CN(C)C(=O)[C@H](CC2CCCCC2)N(C)C(=O)CN(C)C(=O)CN(C)C1=O", "note": "[Compound 707] (cyclo([Ac5c][NMeAla(cPr)][d(β3hA)][NMeL]I[Sar][Sar][NMeCha][Sar][hPhe(3-Cl-4-CF3)]P))", "IC50": 14}
{"smiles": "CC[C@H](C)[C@@H]1NC(=O)[C@H](C)N(C)C(=O)C[C@@H](C)NC(=O)[C@H](C2CCCC2)N(C)C(=O)C2(CCCC2)NC(=O)[C@@H]2CCCN2C(=O)[C@H](CCc2ccc(C(F)(F)F)c(Cl)c2)NC(=O)[C@@H](C)N(C)C(=O)[C@H](Cc2ccc(C)cc2)N(C)C(=O)CN(C)C(=O)CN(C)C1=O", "note": "[Compound 1465] (cyclo([Ac5c][NMeGly(cPent)][d(β3hA)][NMeA]I[Sar][Sar][NMePhe(4-Me)][dNMeA][hPhe(3-Cl-4-CF3)]P))", "IC50": 51}
{"smiles": "CC[C@H](C)[C@@H]1NC(=O)[C@H](CC(C)C)N(C)C(=O)C[C@@H](C(=O)N(C)C)N(C)C(=O)[C@H]([C@@H](C)CC)N(C)C(=O)[C@H](C)NC(=O)[C@H](CCN2CCCC(F)(F)C2)N(C)C(=O)[C@H](CCc2ccc(C(F)(F)F)c(Cl)c2)NC(=O)CN(C)C(=O)[C@H](Cc2ccc(C)cc2)N(C)C(=O)[C@@H]2CCN2C(=O)[C@H](C)N(C)C1=O", "note": "[Compound 1135] ([NMeL]I[NMeA][Aze][NMePhe(4-Me)][Sar][hPhe(3-Cl-4-CF3)][NMeAbu(3,3-F2-piperidino)]A[NMeI][NMeD]-NMe2; lactam N-11)", "IC50": 5.8}
{"smiles": "CC[C@H](C)[C@@H]1NC(=O)[C@H](C)N(C)C(=O)C[C@@H](C)N(C)C(=O)[C@H](C2CCCC2)N(C)C(=O)C(C)(C)N(C)C(=O)[C@@H]2CCCN2C(=O)[C@H](CCc2ccc(C(F)(F)F)c(Cl)c2)NC(=O)CN(C)C(=O)[C@H](CC2CCCCC2)N(C)C(=O)[C@@H]2CCN2C(=O)[C@H](C)N(C)C1=O", "note": "[Compound 2156] (cyclo([Aze][NMeCha][Sar][hPhe(3-Cl-4-CF3)]P[NMeAib][NMeGly(cPent)][NMedβ3hAla][NMeA]I[NMeA]))", "IC50": 4.5}
{"smiles": "CC[C@H](C)[C@@H]1NC(=O)[C@H](CC(C)C)N(C)C(=O)C[C@@H](C(=O)N(C)C)N(C)C(=O)[C@H](C2CCCC2)N(C)C(=O)[C@H](CC(F)(F)F)NC(=O)[C@H](CCN2CC(F)(F)C2)N(C)C(=O)[C@H](CCc2ccc(C(F)(F)F)c(Cl)c2)NC(=O)CN(C)C(=O)[C@H](CC2CCCCC2)N(C)C(=O)[C@@H]2CCN2C(=O)[C@H](C)N(C)C1=O", "note": "[Compound 104] ([NMeL]I[NMeA][Aze][NMeCha][Sar][hPhe(3-Cl-4-CF3)][NMeDab(N,N-(CH2CF2CH2))][Abu(4,4,4-F3)][NMeGly(cPent)][NMeD]-NMe2; lactam N-11)", "IC50": 28}
{"smiles": "CC[C@H](C)[C@@H]1NC(=O)[C@H](C)N(C)C(=O)C[C@@H](C)NC(=O)[C@H](C(C)C)N(C)C(=O)C(C)(C)N(C)C(=O)[C@@H]2CCCN2C(=O)[C@H](CCc2ccc(C(F)(F)F)c(Cl)c2)NC(=O)CN(C)C(=O)[C@H](CC2CCCCC2)N(C)C(=O)CN(C)C(=O)CN(C)C1=O", "note": "[Compound 93] (cyclo(I[Sar][Sar][NMeCha][Sar][hPhe(3-Cl-4-CF3)]P[NMeAib][NMeV][d(β3hA)][NMeA]))", "IC50": 6.9}
{"smiles": "CC[C@H](C)[C@@H]1NC(=O)[C@H](C)N(C)C(=O)C[C@@H](C(=O)N2CCCCC2)N(C)C(=O)[C@H](C2CCCCC2)N(C)C(=O)C2(CCCC2)NC(=O)[C@@H]2CCCN2C(=O)[C@H](COCc2ccc(Cl)cc2)NC(=O)CN(C)C(=O)[C@H](CC2CCCCC2)N(C)C(=O)CN(C)C(=O)CN(C)C1=O", "note": "[Compound 2044] ([NMeA]I[Sar][Sar][NMeCha][Sar]S(Benzyl(4-Cl))P[Ac5c][NMeChg][NMeD]-Piperidide; lactam N-11)", "IC50": 7.9}
{"smiles": "CC[C@H](C)[C@@H]1NC(=O)[C@H](C)N(C)C(=O)C[C@@H](C(=O)N2CCCC2)NC(=O)[C@H](C(C)C)N(C)C(=O)[C@H](Cc2ccccc2)N(C)C(=O)[C@H](Cc2ccccc2)NC(=O)[C@H](Cc2cccc(Cl)c2)NC(=O)CN(CC)C(=O)[C@H](Cc2ccc(Cl)cc2)N(C)C(=O)CN(C)C(=O)CN(C)C1=O", "note": "[Compound 29] ([NMeA]I[Sar][Sar][NMePhe(4-Cl)][NEtG][Phe(3-Cl)]F[NMeF][NMeV]D-Pyrrolidide; lactam N-11)", "IC50": 320}
